From ChEMBL document CHEMBL3227974, “Multivariate analysis and quantitative structure-activity relationships. Inhibition of dihydrofolate reductase and thymidylate synthetase by quinazolines” (J Med Chem, 1979)

Experiments:
[1] = target: T1, Dihydrofolate reductase (Mus musculus) (UniProt P00375); experiment: Inhibition of dihydrofolate reductase in mouse L1210R cells; format: cell-based
T1 sequence (whole entry): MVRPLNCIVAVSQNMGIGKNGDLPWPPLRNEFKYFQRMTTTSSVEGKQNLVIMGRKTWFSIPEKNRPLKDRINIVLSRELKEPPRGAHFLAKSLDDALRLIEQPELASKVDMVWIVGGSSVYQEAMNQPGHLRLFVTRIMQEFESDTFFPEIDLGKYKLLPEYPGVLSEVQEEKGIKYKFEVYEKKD

[2] = target: T2, Dihydrofolate reductase (Homo sapiens) (UniProt P00374)
T2 sequence (whole entry): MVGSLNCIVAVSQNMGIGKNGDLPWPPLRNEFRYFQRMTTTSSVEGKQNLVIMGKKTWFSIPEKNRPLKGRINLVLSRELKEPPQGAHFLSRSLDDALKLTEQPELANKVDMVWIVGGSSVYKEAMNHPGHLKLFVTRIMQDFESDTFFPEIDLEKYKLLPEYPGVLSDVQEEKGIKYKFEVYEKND
Description: Inhibition of dihydrofolate reductase in human acute lymphocytic leukemia cells

[3] = target: Thymidylate synthase (Mus musculus) (UniProt P07607); experiment: Inhibition of thymidylate synthetase in mouse L1210S cells; format: cell-based
Thymidylate synthase (Mus musculus), sequence (P07607 whole entry, looked up): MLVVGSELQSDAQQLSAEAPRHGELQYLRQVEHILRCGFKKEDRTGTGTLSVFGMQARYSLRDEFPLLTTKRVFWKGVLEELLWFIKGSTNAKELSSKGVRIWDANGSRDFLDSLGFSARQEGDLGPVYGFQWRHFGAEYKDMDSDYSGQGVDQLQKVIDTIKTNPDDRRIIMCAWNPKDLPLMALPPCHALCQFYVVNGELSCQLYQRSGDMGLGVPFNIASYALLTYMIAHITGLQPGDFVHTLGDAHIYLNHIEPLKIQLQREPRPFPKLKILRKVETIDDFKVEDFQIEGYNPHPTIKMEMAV

[4] = target: T3, Thymidylate synthase (Lactobacillus casei) (UniProt P00469); experiment: Inhibition of thymidylate synthetase in Lactobacillus casei; conditions: Lacticaseibacillus casei
T3 sequence (whole entry): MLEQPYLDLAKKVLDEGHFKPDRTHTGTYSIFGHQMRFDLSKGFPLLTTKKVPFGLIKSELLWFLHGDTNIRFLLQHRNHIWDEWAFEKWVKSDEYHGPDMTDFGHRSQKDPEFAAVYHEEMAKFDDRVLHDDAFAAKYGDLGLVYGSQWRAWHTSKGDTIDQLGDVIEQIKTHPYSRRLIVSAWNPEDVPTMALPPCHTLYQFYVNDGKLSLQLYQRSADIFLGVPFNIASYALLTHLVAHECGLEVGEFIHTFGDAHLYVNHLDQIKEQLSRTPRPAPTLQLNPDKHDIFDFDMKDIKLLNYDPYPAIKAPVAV

Structure (SMILES) | log(1/I50) [1] | log(1/I50) [2] | log(1/I50) [3] | log(1/I50) [4]
Nc1nc(N)c2c(Cl)c(CNc3ccc(C(=O)NC(CC(=O)O)C(=O)O)cc3)ccc2n1 (stereo not drawn) | 9.21 | 9.35 | – | –
CCOC(=O)CCC(NC(=O)c1ccc(CNc2ccc3nc(N)nc(O)c3c2C)cc1)C(=O)OCC (stereo not drawn) | – | 5.1 | 5.12 | 4
CCOC(=O)c1ccc(NCc2ccc3nc(N)nc(N)c3c2)cc1 | – | – | 4 | 4
Nc1nc(N)c2cc(CNc3ccc(C(=O)NC(CC(=O)O)C(=O)O)cc3Cl)ccc2n1 (stereo not drawn) | 9.13 | 8.82 | – | –
Cc1c(CNc2ccc(Cl)c(Cl)c2)ccc2nc(N)nc(N)c12 | – | 8.59 | – | –
Nc1nc(=O)c2cc(CSc3ccc(C(=O)NC(CCC(=O)O)C(=O)O)cc3)ccc2[nH]1 (stereo not drawn) | – | 4.9 | 6 | 5.6
Cc1c(CNc2ccc(C(=O)NC(CCC(=O)O)C(=O)O)cc2)ccc2nc(N)nc(O)c12 (stereo not drawn) | – | – | 7 | 4.9
CN(Cc1ccc2nc(N)nc(O)c2c1)c1ccc(C(=O)NC(CCC(=O)O)C(=O)O)cc1 (stereo not drawn) | – | 6.22 | 7.3 | 6.4
Nc1nc(N)c2cc(CNc3ccc(C(=O)NC(CCC(=O)O)C(=O)O)cc3)ccc2n1 (stereo not drawn) | – | – | 5 | 4
Nc1nc(N)c2cc(CNc3ccc(Cl)cc3)ccc2n1 | 8.3 | 8.22 | – | –
CCOC(=O)c1ccc(CNc2ccc3nc(N)nc(O)c3c2)cc1 | – | 5.49 | 4 | 4.3
Nc1nc(N)c2cc(CNc3ccc(Cl)c(C(F)(F)F)c3)ccc2n1 | – | 8.4 | – | –
Nc1nc(O)c2cc(CNc3ccc(C(=O)O)cc3)ccc2n1 | – | – | 4 | 4
Nc1nc(S)c2cc(CNc3ccc(C(=O)O)cc3)ccc2n1 | – | – | 4 | 4
CCOC(=O)CCC(NC(=O)c1ccc(N(C)Cc2ccc3nc(N)nc(O)c3c2)cc1)C(=O)OCC (stereo not drawn) | – | – | 5.12 | 4.12
Nc1nc(N)c2cc(CN(N=O)c3ccc(Cl)c(Cl)c3)ccc2n1 | 8 | 8 | – | –
Cc1c(NCc2ccc(C(=O)O)cc2)ccc2nc(N)nc(O)c12 | – | – | 4.05 | 4.05
Nc1nc(N)c2cc(NCc3ccc(C(=O)NC(CC(=O)O)C(=O)O)cc3)ccc2n1 (stereo not drawn) | 7.36 | – | – | –
Nc1nc(N)c2cc(CN(C=O)c3ccc(C(=O)O)cc3)ccc2n1 | – | – | 4 | 4.12
CCOC(=O)c1ccc(CNc2ccc3nc(N)nc(N)c3c2C)cc1 | 8 | – | 4 | 5
Cc1c(CNc2ccc(Cl)c(C(=O)NC(CCC(=O)O)C(=O)O)c2)ccc2nc(N)nc(N)c12 (stereo not drawn) | 8.68 | 8.52 | – | –
Nc1nc(N)c2cc(CNc3ccc(Cl)c(Cl)c3)ccc2n1 | 8.05 | 8.42 | – | –

Structure (SMILES) | log(1/I50) [1] | log(1/I50) [2] | log(1/I50) [3] | log(1/I50) [4]
CCOC(=O)CCC(NC(=O)c1ccc(NCc2ccc3nc(N)nc(N)c3c2C)cc1)C(=O)OCC (stereo not drawn) | – | 8.49 | 5.12 | 4.3
Cc1c(CNc2ccc(C(=O)NC(CC(=O)O)C(=O)O)cc2)ccc2nc(N)nc(N)c12 (stereo not drawn) | 8.87 | 8.9 | 6 | 5
Nc1nc(N)c2cc(CNc3cc(C(=O)NC(CC(=O)O)C(=O)O)ccc3Cl)ccc2n1 (stereo not drawn) | 8.54 | 8.52 | – | –
Nc1nc(N)c2cc(CNc3ccc(Cl)c(C(=O)NC(CC(=O)O)C(=O)O)c3)ccc2n1 (stereo not drawn) | 8.37 | 7.92 | – | –
Nc1nc(N)c2cc(CNc3cccc(Br)c3)ccc2n1 | 8.64 | 8.66 | – | –
Nc1nc(O)c2cc(CN(C=O)c3ccc(C(=O)NC(CCC(=O)O)C(=O)O)cc3)ccc2n1 (stereo not drawn) | – | – | 7 | 5.52
Nc1nc(N)c2c(Cl)c(CNc3ccc(C(=O)NC(CCC(=O)O)C(=O)O)cc3)ccc2n1 (stereo not drawn) | 9.05 | 9.11 | – | –
CCOC(=O)c1ccc(NCc2ccc3nc(N)nc(N)c3c2C)cc1 | – | – | 4 | 4
Nc1nc(N)c2c(Cl)c(CNc3ccc(Cl)c(Cl)c3)ccc2n1 | 8.7 | 8.96 | – | –
COc1cc(NCc2ccc3nc(N)nc(N)c3c2)cc(OC)c1OC | – | 8.22 | – | –
CN(Cc1ccc2nc(N)nc(O)c2c1)c1ccc(C(=O)O)cc1 | – | – | 4.7 | 4.12
CCOC(=O)CCC(NC(=O)c1ccc(CNc2ccc3nc(N)nc(O)c3c2)cc1)C(=O)OCC (stereo not drawn) | – | 5.65 | 6 | 4.46
COc1cc(NCc2ccc3nc(N)nc(N)c3c2C)cc(OC)c1OC | 8.92 | 8.89 | – | –
Cc1c(CNc2cccc(Br)c2)ccc2nc(N)nc(N)c12 | 8.82 | 8.82 | – | –
Nc1nc(N)c2cc(Oc3ccc(CNc4ccc(C(=O)NC(CC(=O)O)C(=O)O)cc4)cc3)ccc2n1 (stereo not drawn) | 7.67 | 7.77 | – | –
Nc1nc(N)c2cc(NCc3ccc(C(=O)NC(CCC(=O)O)C(=O)O)cc3)ccc2n1 (stereo not drawn) | – | 8 | 6.6 | 5.3
CN(Cc1ccc2nc(N)nc(S)c2c1)c1ccc(C(=O)O)cc1 | – | – | 5.12 | 4.12
Nc1nc(N)c2cc(CNc3ccc(C(=O)NC(CC(=O)O)C(=O)O)cc3)ccc2n1 (stereo not drawn) | 8.76 | 8.94 | – | –
Nc1nc(N)c2cc(CNc3ccc(Cl)c(C(=O)NC(CCC(=O)O)C(=O)O)c3)ccc2n1 (stereo not drawn) | 8.03 | 6.7 | – | –
Nc1nc(N)c2cc(CNc3cccc(Cl)c3)ccc2n1 | 8 | 8 | – | –
Nc1nc(O)c2cc(CCc3ccc(C(=O)NC(CCC(=O)O)C(=O)O)cc3)ccc2n1 (stereo not drawn) | – | 6.31 | 5.3 | 5.12
CCOC(=O)CCC(NC(=O)c1ccc(CNc2ccc3nc(N)nc(N)c3c2)cc1)C(=O)OCC (stereo not drawn) | – | 7.66 | 6 | 5

Structure (SMILES) | log(1/I50) [1] | log(1/I50) [2] | log(1/I50) [3] | log(1/I50) [4]
NC(=O)CCC(NC(=O)c1ccc(NCc2ccc3nc(N)nc(N)c3c2)cc1)C(=O)O (stereo not drawn) | 9.66 | 10.1 | – | –
CCOC(=O)CCC(NC(=O)c1ccc(NCc2ccc3nc(N)nc(O)c3c2)cc1)C(=O)OCC (stereo not drawn) | – | – | 6.6 | 4.15
Nc1nc(N)c2cc(CNc3ccc(C(=O)NC(CC(=O)O)CC(=O)O)cc3)ccc2n1 | 8.14 | 8.25 | – | –
CCOC(=O)c1ccc(CNc2ccc3nc(N)nc(O)c3c2C)cc1 | – | – | 4 | 4.05
Cc1c(NCc2ccc(C(=O)NC(CCC(=O)O)C(=O)O)cc2)ccc2nc(N)nc(N)c12 (stereo not drawn) | – | 9.07 | 6.6 | 5.6
CN(Cc1ccc2nc(N)nc(N)c2c1)c1ccc(Cl)c(Cl)c1 | – | 8.3 | – | –
Cc1c(NCc2ccc(C(=O)NC(CCC(=O)O)C(=O)O)cc2)ccc2nc(N)nc(O)c12 (stereo not drawn) | – | 6.12 | 5.12 | 4.3
CN(Cc1ccc2nc(N)nc(N)c2c1)c1ccc(C(=O)NC(CC(=O)O)C(=O)O)cc1 (stereo not drawn) | 8.66 | 8.69 | – | –
Cc1c(CN(N=O)c2ccc(Cl)c(Cl)c2)ccc2nc(N)nc(N)c12 | – | 8 | – | –
Nc1nc(O)c2cc(COc3ccc(C(=O)NC(CCC(=O)O)C(=O)O)cc3)ccc2n1 (stereo not drawn) | – | – | 5 | 4
Nc1nc(O)c2cc(NCc3ccc(C(=O)O)cc3)ccc2n1 | – | – | 4 | 4
Nc1nc(N)c2cc(Oc3ccc(CNc4ccc(C(=O)NC(CCC(=O)O)C(=O)O)cc4)cc3)ccc2n1 (stereo not drawn) | 7.71 | 7.8 | – | –
CCOC(=O)CCC(NC(=O)c1ccc(NCc2ccc3nc(N)nc(N)c3c2)cc1)C(=O)OCC (stereo not drawn) | – | – | 4 | 4
CCOC(=O)c1ccc(NCc2ccc3nc(N)nc(O)c3c2)cc1 | – | 4.66 | 4 | 4
Nc1nc(=O)c2cc(NCc3ccc(C(=O)NC(CCC(=O)O)C(=O)O)cc3)ccc2[nH]1 (stereo not drawn) | – | 5.78 | 6.3 | 5
Nc1nc(N)c2cc(CN(C=O)c3ccc(C(=O)NC(CCC(=O)O)C(=O)O)cc3)ccc2n1 (stereo not drawn) | – | 8.22 | – | –
CCOC(=O)CCC(NC(=O)c1ccc(SCc2ccc3nc(N)nc(O)c3c2)cc1)C(=O)OCC (stereo not drawn) | – | 5.05 | 7 | 5.1
Cc1c(CNc2ccc(C(=O)NC(CCC(=O)O)C(=O)O)cc2)ccc2nc(N)nc(N)c12 (stereo not drawn) | – | 8.78 | – | –
Nc1nc(N)c2cc(CNc3ccc(C(=O)NC(C(=O)O)C(=O)O)cc3)ccc2n1 | 8.81 | 9.1 | – | –
Cc1c(CNc2ccc(C(=O)NC(CC(=O)O)CC(=O)O)cc2)ccc2nc(N)nc(N)c12 | 9.15 | 8.17 | – | –
CC(=O)N(Cc1ccc2nc(N)nc(N)c2c1)c1ccc(Cl)c(Cl)c1 | – | 7.3 | – | –
